Article PMC5218480 (PLoS ONE, 2017)

Test system: MV-4-11 cells
Assay: Gene expression microarray analysis (Affymetrix PrimeView) and GSEA
Format: cell-based, human
Set-up: RFU PODN (11730768_x_at) / Fold change /veh PODN (11730768_x_at) / RFU LINC00158 (11744669_a_at) / Fold change /veh LINC00158 (11744669_a_at) / RFU DUSP10 (11751237_a_at) / Fold change /veh DUSP10 (11751237_a_at) / RFU ID3 (11757404_x_at) / Fold change /veh ID3 (11757404_x_at) / RFU PLEKHG5 (11737974_s_at) / Fold change /veh PLEKHG5 (11737974_s_at) / RFU LRRC4B (11730491_at) / Fold change /veh LRRC4B (11730491_at) / RFU GIMAP4 (11747438_a_at) / Fold change /veh GIMAP4 (11747438_a_at) / RFU KRT8 (11758183_x_at) / Fold change /veh KRT8 (11758183_x_at) / RFU CNN1 (11734310_a_at) / Fold change /veh CNN1 (11734310_a_at) / RFU VPS37D (11726825_at) / Fold change /veh VPS37D (11726825_at) / RFU C10orf10 (11716522_x_at) / Fold change /veh C10orf10 (11716522_x_at) / RFU KIR2DL2 /// KIR2DL4 /// KIR2DL5A /// KIR2DL5B /// KIR2DS1 /// KIR2DS2 /// KIR2DS3 /// KIR2DS4 /// KIR3DL3 /// KIR3DL3 /// KIR3DS1 (11738374_at) / Fold change /veh KIR2DL2 /// KIR2DL4 /// KIR2DL5A /// KIR2DL5B /// KIR2DS1 /// KIR2DS2 /// KIR2DS3 /// KIR2DS4 /// KIR3DL3 /// KIR3DL3 /// KIR3DS1 (11738374_at) / RFU C1QL1 (11718748_at) / Fold change /veh C1QL1 (11718748_at) / RFU TMPRSS4 (11747572_a_at) / Fold change /veh TMPRSS4 (11747572_a_at) / RFU HAMP (11756126_x_at) / Fold change /veh HAMP (11756126_x_at) / RFU RNFT2 (11725882_a_at) / Fold change /veh RNFT2 (11725882_a_at) / RFU NR4A2 (11747474_a_at) / Fold change /veh NR4A2 (11747474_a_at) / RFU ABCC12 (11746883_a_at) / Fold change /veh ABCC12 (11746883_a_at) / RFU TMEM136 (11760407_x_at) / Fold change /veh TMEM136 (11760407_x_at) / RFU CLDN22 /// WWC2 (11732394_at) / Fold change /veh CLDN22 /// WWC2 (11732394_at) / RFU HLA-DPB1 (11760878_x_at) / Fold change /veh HLA-DPB1 (11760878_x_at) / RFU SPINT1 (11716480_a_at) / Fold change /veh SPINT1 (11716480_a_at) / RFU GAP43 (11754022_s_at) / Fold change /veh GAP43 (11754022_s_at) / RFU A4GNT (11735810_at) / Fold change /veh A4GNT (11735810_at) / RFU PRB3 (11715151_x_at) / Fold change /veh PRB3 (11715151_x_at) / RFU TUBB4B (11761932_at) / Fold change /veh TUBB4B (11761932_at) / RFU CAPN14 (11732068_a_at) / Fold change /veh CAPN14 (11732068_a_at) / RFU TMCC2 (11721928_a_at) / Fold change /veh TMCC2 (11721928_a_at) / RFU IRGQ (11745062_a_at) / Fold change /veh IRGQ (11745062_a_at) / RFU FAM174B (11720279_a_at) / Fold change /veh FAM174B (11720279_a_at) / RFU TMPRSS4 (11748680_a_at) / Fold change /veh TMPRSS4 (11748680_a_at) / RFU FAM212B (11763350_a_at) / Fold change /veh FAM212B (11763350_a_at) / RFU PLEKHG5 (11743358_a_at) / Fold change /veh PLEKHG5 (11743358_a_at) / RFU ZSCAN30 (11745921_a_at) / Fold change /veh ZSCAN30 (11745921_a_at) / RFU CMKLR1 (11741424_a_at) / Fold change /veh CMKLR1 (11741424_a_at) / RFU LOC101060620 /// MAPK8IP1 (11723275_at) / Fold change /veh LOC101060620 /// MAPK8IP1 (11723275_at) / RFU SPTSSB (11747773_x_at) / Fold change /veh SPTSSB (11747773_x_at) / RFU PRSS12 (11739890_at) / Fold change /veh PRSS12 (11739890_at) / RFU BIN1 (11741810_x_at) / Fold change /veh BIN1 (11741810_x_at) / RFU WNT11 (11732464_a_at) / Fold change /veh WNT11 (11732464_a_at) / RFU C10orf10 (11716521_a_at) / Fold change /veh C10orf10 (11716521_a_at) / RFU C5orf56 (11738089_at) / Fold change /veh C5orf56 (11738089_at) / RFU CYB561 (11721691_x_at) / Fold change /veh CYB561 (11721691_x_at) / RFU ANKRD19P (11752326_a_at) / Fold change /veh ANKRD19P (11752326_a_at) / RFU OR2T12 /// OR2T33 /// OR2T8 (11738714_s_at) / Fold change /veh OR2T12 /// OR2T33 /// OR2T8 (11738714_s_at) / RFU VCAN (11748164_a_at) / Fold change /veh VCAN (11748164_a_at) / RFU JSRP1 (11732532_at) / Fold change /veh JSRP1 (11732532_at) / RFU KRTAP10-11 (11738290_x_at) / Fold change /veh KRTAP10-11 (11738290_x_at) / RFU MYO3A (11730013_a_at) / Fold change /veh MYO3A (11730013_a_at) / RFU EBF3 (11725865_a_at) / Fold change /veh EBF3 (11725865_a_at) / RFU CAMK2N1 (11719241_x_at) / Fold change /veh CAMK2N1 (11719241_x_at) / RFU C5orf56 (11738088_a_at) / Fold change /veh C5orf56 (11738088_a_at) / RFU OLFML3 (11715873_a_at) / Fold change /veh OLFML3 (11715873_a_at) / RFU LOC100653217 /// NTM (11731650_a_at) / Fold change /veh LOC100653217 /// NTM (11731650_a_at) / RFU MAPK11 (11762145_a_at) / Fold change /veh MAPK11 (11762145_a_at) / RFU FIZ1 (11724087_x_at) / Fold change /veh FIZ1 (11724087_x_at) / RFU OASL (11726364_x_at) / Fold change /veh OASL (11726364_x_at) / RFU SOX15 (11748057_x_at) / Fold change /veh SOX15 (11748057_x_at) / RFU CD79A (11719716_a_at) / Fold change /veh CD79A (11719716_a_at) / RFU HIST1H1D (11736915_at) / Fold change /veh HIST1H1D (11736915_at) / RFU CASKIN2 (11723855_a_at) / Fold change /veh CASKIN2 (11723855_a_at) / RFU LOC730098 (11760151_x_at) / Fold change /veh LOC730098 (11760151_x_at) / RFU OR4N2 (11742367_at) / Fold change /veh OR4N2 (11742367_at) / RFU PRRT2 (11749266_a_at) / Fold change /veh PRRT2 (11749266_a_at) / RFU SNX32 (11753110_a_at) / Fold change /veh SNX32 (11753110_a_at) / RFU CDHR5 (11726645_a_at) / Fold change /veh CDHR5 (11726645_a_at) / RFU RCAN1 (11760418_a_at) / Fold change /veh RCAN1 (11760418_a_at) / RFU FAM167A (11723789_a_at) / Fold change /veh FAM167A (11723789_a_at) / RFU FAM26E (11764081_at) / Fold change /veh FAM26E (11764081_at) / RFU ISYNA1 (11749810_s_at) / Fold change /veh ISYNA1 (11749810_s_at) / RFU ACY1 (11761880_at) / Fold change /veh ACY1 (11761880_at) / RFU 11764098_at / Fold change /veh 11764098_at / RFU SAMD14 (11745864_x_at) / Fold change /veh SAMD14 (11745864_x_at) / RFU NPB (11741838_a_at) / Fold change /veh NPB (11741838_a_at) / RFU TMPRSS6 (11731388_a_at) / Fold change /veh TMPRSS6 (11731388_a_at) / RFU KRTAP10-2 (11738614_at) / Fold change /veh KRTAP10-2 (11738614_at) / RFU ARHGAP8 /// PRR5-ARHGAP8 (11727945_x_at) / Fold change /veh ARHGAP8 /// PRR5-ARHGAP8 (11727945_x_at) / RFU KRTAP5-7 /// NADSYN1 (11734609_at) / Fold change /veh KRTAP5-7 /// NADSYN1 (11734609_at) / RFU RASL12 (11751679_a_at) / Fold change /veh RASL12 (11751679_a_at) / RFU CDKN2B (11736163_a_at) / Fold change /veh CDKN2B (11736163_a_at) / RFU PRF1 (11729649_at) / Fold change /veh PRF1 (11729649_at) / RFU, ZNF638 /// ZNF638-IT1 / Fold change vs veh, ZNF638 /// ZNF638-IT1 / RFU, PANK3 / Fold change vs veh, PANK3 / RFU, SH3YL1 / Fold change vs veh, SH3YL1 / RFU, ZEB2 / Fold change vs veh, ZEB2 / RFU, NRIP1 / Fold change vs veh, NRIP1 / RFU, PTTG1IP / Fold change vs veh, PTTG1IP / RFU, CAPN2 / Fold change vs veh, CAPN2 / RFU, MED14 / Fold change vs veh, MED14 / RFU, SNORA58 / Fold change vs veh, SNORA58 / RFU, C1orf63 / Fold change vs veh, C1orf63 / RFU, LRRFIP1 / Fold change vs veh, LRRFIP1 / RFU, NDUFAF7 / Fold change vs veh, NDUFAF7 / RFU, SLC12A2 / Fold change vs veh, SLC12A2 / RFU, IBTK / Fold change vs veh, IBTK / RFU, ESF1 / Fold change vs veh, ESF1 / Fold change vs veh, TMEM50B / RFU, TAOK1 / Fold change vs veh, TAOK1 / RFU, ACBD3 / Fold change vs veh, ACBD3 / RFU, TMA16 / Fold change vs veh, TMA16 / RFU, RWDD3 / Fold change vs veh, RWDD3 / RFU, BCAT1 / Fold change vs veh, BCAT1 / RFU, EDEM3 / Fold change vs veh, EDEM3 / RFU, TMEM33 / Fold change vs veh, TMEM33 / RFU, WDR75 / Fold change vs veh, WDR75 / RFU, AHCTF1 / Fold change vs veh, AHCTF1 / RFU, TFRC / Fold change vs veh, TFRC / RFU, ZDHHC17 / Fold change vs veh, ZDHHC17 / RFU, NOM1 / Fold change vs veh, NOM1 / RFU, ARL8B / Fold change vs veh, ARL8B / RFU, ZBTB11 / Fold change vs veh, ZBTB11 / RFU, TAMM41 / Fold change vs veh, TAMM41 / RFU, KIAA1704 /// LOC100996395 / Fold change vs veh, KIAA1704 /// LOC100996395 / RFU, ING1 / Fold change vs veh, ING1 / RFU, TRMT61B / Fold change vs veh, TRMT61B / RFU, FUBP3 / Fold change vs veh, FUBP3 / RFU, TP53 / Fold change vs veh, TP53 / RFU, TNKS2 / Fold change vs veh, TNKS2 / RFU, ZFP14 / Fold change vs veh, ZFP14 / RFU, ACTR2 / Fold change vs veh, ACTR2 / RFU, PPP3R1 / Fold change vs veh, PPP3R1 / RFU, PIK3R1 / Fold change vs veh, PIK3R1 / RFU, HNRNPA1 / Fold change vs veh, HNRNPA1 / RFU, RNF170 / Fold change vs veh, RNF170 / RFU, ZNF28 / Fold change vs veh, ZNF28 / RFU, RNGTT / Fold change vs veh, RNGTT / RFU, OGT / Fold change vs veh, OGT / RFU, BRD1 / Fold change vs veh, BRD1 / RFU, MARS / Fold change vs veh, MARS / RFU, ZNF655 / Fold change vs veh, ZNF655 / RFU, FAHD1 / Fold change vs veh, FAHD1 / RFU, BDP1 / Fold change vs veh, BDP1 / RFU, LRRCC1 / Fold change vs veh, LRRCC1 / RFU, ARID1A / Fold change vs veh, ARID1A / RFU, ZNF146 / Fold change vs veh, ZNF146 / RFU, ZNF330 / Fold change vs veh, ZNF330 / RFU, GPN3 / Fold change vs veh, GPN3 / RFU, C9orf123 / Fold change vs veh, C9orf123 / RFU, N4BP2L2 / Fold change vs veh, N4BP2L2 / RFU, ARFIP1 / Fold change vs veh, ARFIP1 / RFU, FAM179B / Fold change vs veh, FAM179B / RFU, BCL10 / Fold change vs veh, BCL10 / RFU, UHRF1BP1L / Fold change vs veh, UHRF1BP1L / RFU, BET1 / Fold change vs veh, BET1 / RFU, CNOT2 / Fold change vs veh, CNOT2 / RFU, ZNF268 / Fold change vs veh, ZNF268 / Fold change vs veh, ZNF507 / RFU, DGCR2 / Fold change vs veh, DGCR2 / RFU, WDSUB1 / Fold change vs veh, WDSUB1 / Fold change vs veh, HSP90B1 /// MIR3652 / RFU, ADSS / Fold change vs veh, ADSS / RFU, GK / Fold change vs veh, GK / RFU, ZNF148 / Fold change vs veh, ZNF148 / RFU, TAF9 / Fold change vs veh, TAF9 / RFU, SLC1A5 / Fold change vs veh, SLC1A5 / RFU, SLMO2 / Fold change vs veh, SLMO2 / RFU, ABCC4 / Fold change vs veh, ABCC4 / RFU, LOC101060439 /// RAP1B / Fold change vs veh, LOC101060439 /// RAP1B / RFU, RFX7 / Fold change vs veh, RFX7 / RFU, GTPBP10 / Fold change vs veh, GTPBP10 / RFU, CNEP1R1 / Fold change vs veh, CNEP1R1 / RFU, BIVM-ERCC5 /// ERCC5 / Fold change vs veh, BIVM-ERCC5 /// ERCC5 / RFU, ILF3 / Fold change vs veh, ILF3 / RFU 11762660_at / Fold change /veh 11762660_at / RFU VCAN (11757783_s_at) / Fold change /veh VCAN (11757783_s_at) / RFU DDX43 (11728927_at) / Fold change /veh DDX43 (11728927_at) / RFU KRT8 (11758188_x_at) / Fold change /veh KRT8 (11758188_x_at) / RFU NKD1 (11759106_at) / Fold change /veh NKD1 (11759106_at) / RFU SRD5A1 (11742802_a_at) / Fold change /veh SRD5A1 (11742802_a_at) / RFU TPSAB1 /// TPSB2 (11721975_s_at) / Fold change /veh TPSAB1 /// TPSB2 (11721975_s_at) / RFU GSTM3 (11746129_a_at) / Fold change /veh GSTM3 (11746129_a_at) / RFU IL23R (11737362_x_at) / Fold change /veh IL23R (11737362_x_at) / RFU TMEM51 (11727254_a_at) / Fold change /veh TMEM51 (11727254_a_at) / RFU PIWIL2 (11732686_x_at) / Fold change /veh PIWIL2 (11732686_x_at) / RFU ORM1 (11744905_x_at) / Fold change /veh ORM1 (11744905_x_at) / RFU CCDC152 (11743942_at) / Fold change /veh CCDC152 (11743942_at) / RFU ECM1 (11717891_a_at) / Fold change /veh ECM1 (11717891_a_at) / RFU IL23R (11748794_a_at) / Fold change /veh IL23R (11748794_a_at) / RFU TNFAIP8L3 (11732012_x_at) / Fold change /veh TNFAIP8L3 (11732012_x_at) / RFU MBOAT4 (11741988_at) / Fold change /veh MBOAT4 (11741988_at) / RFU 11764193_at / Fold change /veh 11764193_at / RFU TMEM53 (11763286_at) / Fold change /veh TMEM53 (11763286_at) / RFU MAGEB2 (11727129_at) / Fold change /veh MAGEB2 (11727129_at) / RFU TMEM200A (11744735_a_at) / Fold change /veh TMEM200A (11744735_a_at) / RFU CCDC152 (11751479_a_at) / Fold change /veh CCDC152 (11751479_a_at) / RFU FAM211A (11726209_a_at) / Fold change /veh FAM211A (11726209_a_at) / RFU RGS16 (11746705_a_at) / Fold change /veh RGS16 (11746705_a_at) / RFU VCAN (11755009_s_at) / Fold change /veh VCAN (11755009_s_at) / RFU RHOB (11743442_s_at) / Fold change /veh RHOB (11743442_s_at) / RFU RGS16 (11720943_a_at) / Fold change /veh RGS16 (11720943_a_at) / RFU RGS16 (11720944_at) / Fold change /veh RGS16 (11720944_at) / RFU, VPS4B / Fold change vs veh, VPS4B / RFU, CREB1 / Fold change vs veh, CREB1 / RFU, DNAJC13 / Fold change vs veh, DNAJC13 / RFU, GNAQ / Fold change vs veh, GNAQ / RFU, CDK5R1 / Fold change vs veh, CDK5R1 / RFU, ZRANB3 / Fold change vs veh, ZRANB3 / RFU, CUL4A / Fold change vs veh, CUL4A / RFU, CCNY / Fold change vs veh, CCNY / RFU, UFL1 / Fold change vs veh, UFL1 / RFU, COG3 / Fold change vs veh, COG3 / RFU, DIAPH2 / Fold change vs veh, DIAPH2 / RFU, SKA2 / Fold change vs veh, SKA2 / RFU, AFF3 / Fold change vs veh, AFF3 / RFU, LMF1 / Fold change vs veh, LMF1 / RFU, IPO11 / Fold change vs veh, IPO11 / RFU, DFFB / Fold change vs veh, DFFB / RFU, FOXP1 / Fold change vs veh, FOXP1 / RFU, CARD8 / Fold change vs veh, CARD8 / RFU, STRN3 / Fold change vs veh, STRN3 / RFU, ADK / Fold change vs veh, ADK / RFU, RASSF2 / Fold change vs veh, RASSF2 / RFU, WIPF1 / Fold change vs veh, WIPF1 / RFU, LARP1B / Fold change vs veh, LARP1B / RFU, RASA1 / Fold change vs veh, RASA1 / RFU, RB1 / Fold change vs veh, RB1 / RFU, PPFIA1 / Fold change vs veh, PPFIA1 / RFU, MAT2A / Fold change vs veh, MAT2A / RFU, CCT5 / Fold change vs veh, CCT5 / RFU, WDR92 / Fold change vs veh, WDR92 / RFU, CUX1 / Fold change vs veh, CUX1 / RFU, TTC7A / Fold change vs veh, TTC7A / RFU, TMEM135 / Fold change vs veh, TMEM135 / RFU, DEPTOR / Fold change vs veh, DEPTOR / RFU, CPM / Fold change vs veh, CPM / RFU, DNAJB6 / Fold change vs veh, DNAJB6 / RFU, CACNA2D3 / Fold change vs veh, CACNA2D3 / RFU, DTX4 / Fold change vs veh, DTX4 / RFU, TFCP2 / Fold change vs veh, TFCP2 / RFU, GMCL1 /// GMCL1P1 / Fold change vs veh, GMCL1 /// GMCL1P1 / RFU, AEBP2 / Fold change vs veh, AEBP2 / RFU, SNHG1 /// SNORD22 /// SNORD25 /// SNORD26 /// SNORD27 /// SNORD28 /// SNORD29 /// SNORD31 / Fold change vs veh, SNHG1 /// SNORD22 /// SNORD25 /// SNORD26 /// SNORD27 /// SNORD28 /// SNORD29 /// SNORD31 / Fold change (Aza/veh), C12orf56 (ProbeSet 11735607_a_at) / Fold change (ACY-1035/veh), C12orf56 (ProbeSet 11735607_a_at) / Fold change (Aza/veh), FGFR1OP (ProbeSet 11751329_s_at) / Fold change (ACY-1035/veh), FGFR1OP (ProbeSet 11751329_s_at) / Fold change (Aza/veh), VPS36 (ProbeSet 11739960_a_at) / Fold change (ACY-1035/veh), VPS36 (ProbeSet 11739960_a_at) / RFU SYPL1 (11715823_x_at) / Fold change /veh SYPL1 (11715823_x_at) / RFU IGFBP7 (11715501_s_at) / Fold change /veh IGFBP7 (11715501_s_at) / RFU REEP3 (11722064_at) / Fold change /veh REEP3 (11722064_at) / RFU IGLL1 (11728026_x_at) / Fold change /veh IGLL1 (11728026_x_at): dose or concentration left out as unconfirmed
Conditions: MV-4-11 cells, 48 hours

`Nc1ccc(-c2cccs2)cc1NC(=O)c1ccc2c(c1)cc(C1CC1)n2CCN1CCOCC1` [ACY-1035] was tested, and the “RFU VPS37D (11726825_at)” value was 17.46 RFU.
